{
  "source": "patent US11572590B2",
  "about": "“Methods for evaluating tumor cell spheroids using 3D microfluidic cell culture device” (Dana-Farber Cancer Institute, Inc., priority 2017, dated 2023)",
  "assay_in_all_cases": "SelectScreen Kinase Profiling, single point inhibition and IC50 for off-target kinases",
  "format_in_all_cases": "biochemical",
  "key": {"[1]": {"molecular_target": "off-target kinases (Homo sapiens, UniProt P04049, Y340D/Y341D)", "sequence (P04049 whole entry Y340D/Y341D)": "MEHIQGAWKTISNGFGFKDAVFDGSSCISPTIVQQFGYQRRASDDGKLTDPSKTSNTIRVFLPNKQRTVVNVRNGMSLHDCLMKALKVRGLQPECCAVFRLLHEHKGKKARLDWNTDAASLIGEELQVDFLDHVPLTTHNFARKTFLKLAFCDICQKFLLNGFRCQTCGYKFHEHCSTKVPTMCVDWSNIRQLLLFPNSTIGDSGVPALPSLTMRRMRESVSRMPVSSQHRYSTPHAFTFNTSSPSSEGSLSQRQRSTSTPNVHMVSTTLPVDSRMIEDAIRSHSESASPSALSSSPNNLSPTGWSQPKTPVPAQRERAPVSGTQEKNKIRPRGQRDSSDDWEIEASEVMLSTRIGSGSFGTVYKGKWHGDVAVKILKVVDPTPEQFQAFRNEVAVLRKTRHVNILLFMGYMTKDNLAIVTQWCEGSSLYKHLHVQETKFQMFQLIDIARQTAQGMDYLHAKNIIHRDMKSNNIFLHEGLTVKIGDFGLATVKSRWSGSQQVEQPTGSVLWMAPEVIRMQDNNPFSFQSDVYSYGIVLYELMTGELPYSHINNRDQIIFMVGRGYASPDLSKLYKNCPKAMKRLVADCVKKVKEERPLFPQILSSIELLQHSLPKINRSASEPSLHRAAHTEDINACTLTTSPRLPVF"}, "[2]": {"molecular_target": "off-target kinases (Homo sapiens, UniProt P07949, G691S)", "sequence (P07949 29-1114 G691S)": "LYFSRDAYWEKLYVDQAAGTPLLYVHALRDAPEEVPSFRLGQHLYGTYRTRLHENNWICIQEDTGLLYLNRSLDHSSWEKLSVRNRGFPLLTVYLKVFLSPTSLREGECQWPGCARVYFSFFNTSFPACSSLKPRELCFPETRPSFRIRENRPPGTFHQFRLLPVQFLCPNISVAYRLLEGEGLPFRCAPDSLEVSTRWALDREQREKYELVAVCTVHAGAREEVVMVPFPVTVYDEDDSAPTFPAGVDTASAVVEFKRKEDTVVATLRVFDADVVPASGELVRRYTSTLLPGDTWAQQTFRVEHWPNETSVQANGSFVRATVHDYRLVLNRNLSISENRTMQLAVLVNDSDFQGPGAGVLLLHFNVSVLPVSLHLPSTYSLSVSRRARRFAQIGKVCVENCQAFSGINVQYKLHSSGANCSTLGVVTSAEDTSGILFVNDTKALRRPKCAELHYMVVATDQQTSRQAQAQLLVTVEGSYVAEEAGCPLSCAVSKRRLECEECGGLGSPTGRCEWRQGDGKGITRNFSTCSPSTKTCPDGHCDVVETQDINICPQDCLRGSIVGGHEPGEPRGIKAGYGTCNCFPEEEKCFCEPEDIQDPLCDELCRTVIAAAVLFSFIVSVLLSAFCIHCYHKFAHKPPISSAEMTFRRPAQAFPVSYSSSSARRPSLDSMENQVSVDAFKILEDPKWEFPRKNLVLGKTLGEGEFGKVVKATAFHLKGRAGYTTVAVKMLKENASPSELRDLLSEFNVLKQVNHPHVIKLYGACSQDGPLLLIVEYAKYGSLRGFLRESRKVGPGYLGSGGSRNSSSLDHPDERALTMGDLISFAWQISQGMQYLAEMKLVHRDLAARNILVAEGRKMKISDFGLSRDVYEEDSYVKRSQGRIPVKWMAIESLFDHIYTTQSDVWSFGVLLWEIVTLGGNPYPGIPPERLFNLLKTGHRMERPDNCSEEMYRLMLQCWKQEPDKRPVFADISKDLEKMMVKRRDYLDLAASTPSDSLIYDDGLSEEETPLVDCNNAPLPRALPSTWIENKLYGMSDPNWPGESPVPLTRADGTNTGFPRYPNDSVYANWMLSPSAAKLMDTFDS", "conditions": "RET G691S, mutant y, LanthaScreen Binding"}, "[3]": {"molecular_target": "T1, off-target kinases (Homo sapiens, UniProt O00329)", "T1 sequence (O00329 1-1044)": "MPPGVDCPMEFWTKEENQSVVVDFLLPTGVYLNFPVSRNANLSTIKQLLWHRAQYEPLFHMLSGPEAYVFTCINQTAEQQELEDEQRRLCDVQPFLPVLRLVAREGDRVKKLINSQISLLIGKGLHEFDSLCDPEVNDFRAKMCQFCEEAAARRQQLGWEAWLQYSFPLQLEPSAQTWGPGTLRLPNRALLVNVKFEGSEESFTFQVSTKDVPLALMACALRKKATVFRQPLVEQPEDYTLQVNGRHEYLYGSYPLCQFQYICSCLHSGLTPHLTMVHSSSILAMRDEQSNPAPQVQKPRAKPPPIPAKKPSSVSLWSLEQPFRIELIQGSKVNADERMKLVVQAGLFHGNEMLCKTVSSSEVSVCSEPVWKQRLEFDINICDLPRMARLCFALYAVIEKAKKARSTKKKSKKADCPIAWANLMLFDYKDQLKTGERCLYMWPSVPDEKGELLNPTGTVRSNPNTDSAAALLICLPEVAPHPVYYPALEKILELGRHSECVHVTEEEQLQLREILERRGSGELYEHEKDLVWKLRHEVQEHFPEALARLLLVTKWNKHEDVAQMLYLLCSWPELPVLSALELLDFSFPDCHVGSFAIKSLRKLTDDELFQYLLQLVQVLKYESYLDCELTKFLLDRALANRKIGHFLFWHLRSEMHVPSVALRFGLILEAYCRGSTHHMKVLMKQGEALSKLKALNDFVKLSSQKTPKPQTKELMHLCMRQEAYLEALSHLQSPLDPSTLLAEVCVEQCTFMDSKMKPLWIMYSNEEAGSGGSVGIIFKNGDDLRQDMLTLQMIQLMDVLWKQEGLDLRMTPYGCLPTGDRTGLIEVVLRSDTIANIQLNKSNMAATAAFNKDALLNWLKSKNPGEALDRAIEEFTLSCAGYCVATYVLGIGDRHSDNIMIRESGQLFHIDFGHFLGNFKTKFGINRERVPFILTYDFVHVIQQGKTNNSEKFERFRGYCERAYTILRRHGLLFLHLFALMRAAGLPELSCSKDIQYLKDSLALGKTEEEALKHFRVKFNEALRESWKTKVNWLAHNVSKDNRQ", "conditions": "PIK3CD/PIK3R1 (p110 delta/p85 alpha), Adapta, ATP Km app"}, "[4]": {"molecular_target": "off-target kinases (Homo sapiens, UniProt Q05655)", "sequence (Q05655 whole entry)": "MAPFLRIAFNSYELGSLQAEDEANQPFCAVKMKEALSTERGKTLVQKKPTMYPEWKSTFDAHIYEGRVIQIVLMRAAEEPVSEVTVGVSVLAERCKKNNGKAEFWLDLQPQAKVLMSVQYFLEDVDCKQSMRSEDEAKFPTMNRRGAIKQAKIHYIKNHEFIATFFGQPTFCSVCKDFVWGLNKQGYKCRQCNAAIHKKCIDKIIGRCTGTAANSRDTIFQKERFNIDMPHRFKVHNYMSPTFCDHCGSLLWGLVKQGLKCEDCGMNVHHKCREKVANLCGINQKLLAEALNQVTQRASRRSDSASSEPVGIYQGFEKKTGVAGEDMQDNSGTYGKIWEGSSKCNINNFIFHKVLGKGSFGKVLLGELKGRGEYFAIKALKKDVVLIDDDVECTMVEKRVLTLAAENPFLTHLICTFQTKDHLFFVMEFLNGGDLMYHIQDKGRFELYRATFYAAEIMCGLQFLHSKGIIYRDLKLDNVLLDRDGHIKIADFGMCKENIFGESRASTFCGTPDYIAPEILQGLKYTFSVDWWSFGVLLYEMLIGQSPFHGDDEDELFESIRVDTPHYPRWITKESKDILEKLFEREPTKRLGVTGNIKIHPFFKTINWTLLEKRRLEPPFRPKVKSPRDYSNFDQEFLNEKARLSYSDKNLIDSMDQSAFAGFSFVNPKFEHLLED", "conditions": "PRKCD (PKC delta), ZLYTE, ATP Km app"}},
  "note": "Read-outs that look alike come from different tables or passages of the source.",
  "data": [
    {"molecule": "N#Cc1cc(-c2ncnc(Nc3ccc(N4CCN(C5COC5)CC4)cc3)n2)ccc1OC1CCOCC1", "note": "[Compound 1, 5-(4-((4-(4-(oxetan-3-yl)piperazin-1-yl)phenyl)amino)-1,3,5-triazin-2-yl)-2-((tetrahydro-2H-pyran-4-yl)oxy)benzonitrile]", "values": [
      {"measurement": "inhibition", "setting": "[1]; RAF1 (cRAF) Y340D Y341D (mutant), ZLYTE, ATP 100, read-out: % Inhibition 1", "result": 5, "unit": "%"},
      {"measurement": "inhibition", "setting": "[1]; RAF1 (cRAF) Y340D Y341D (mutant), ZLYTE, ATP 100, read-out: % Inhibition 2", "result": 3, "unit": "%"},
      {"measurement": "inhibition", "setting": "[1]; RAF1 (cRAF) Y340D Y341D (mutant), ZLYTE, ATP 100, read-out: % Inhibition Avg", "result": 4, "unit": "%"},
      {"measurement": "inhibition", "setting": "[1]; RAF1 (cRAF) Y340D Y341D, mutant y, LanthaScreen Binding, read-out: % Inhibition 1", "result": 15, "unit": "%"},
      {"measurement": "inhibition", "setting": "[1]; RAF1 (cRAF) Y340D Y341D, mutant y, LanthaScreen Binding, read-out: % Inhibition 2", "result": 20, "unit": "%"},
      {"measurement": "inhibition", "setting": "[1]; RAF1 (cRAF) Y340D Y341D, mutant y, LanthaScreen Binding, read-out: % Inhibition Avg", "result": 18, "unit": "%"},
      {"measurement": "inhibition", "setting": "[2]; read-out: % Inhibition 1", "result": 19, "unit": "%"},
      {"measurement": "inhibition", "setting": "[2]; read-out: % Inhibition 2", "result": 18, "unit": "%"},
      {"measurement": "inhibition", "setting": "[2]; read-out: % Inhibition Avg", "result": 18, "unit": "%"},
      {"measurement": "inhibition", "setting": "[3]; read-out: % Inhibition 1", "result": 22, "unit": "%"},
      {"measurement": "inhibition", "setting": "[3]; read-out: % Inhibition 2", "result": 9, "unit": "%"},
      {"measurement": "inhibition", "setting": "[3]; read-out: % Inhibition Avg", "result": 16, "unit": "%"},
      {"measurement": "inhibition", "setting": "[4]; read-out: % Inhibition 1", "result": 4, "unit": "%"},
      {"measurement": "inhibition", "setting": "[4]; read-out: % Inhibition 2", "result": -4, "unit": "%"},
      {"measurement": "inhibition", "setting": "[4]; read-out: % Inhibition Avg", "result": 0, "unit": "%"}
    ]}
  ]
}
